ChEMBL document CHEMBL5715260, “Selectivity Literature for EUbOPEN Chemogenomic Library” (2024)
Each block holds one compound with its values, some of them ahead of it.

Experiments:
Set-up in all cases: recommended concentration 1 uM
[1] = molecular target: T1, Hepatocyte nuclear factor 4-alpha (Homo sapiens) (UniProt P41235); test: Selectivity interaction (Reporter gene assay) EUB0001144a HNF4A
T1 sequence (whole entry): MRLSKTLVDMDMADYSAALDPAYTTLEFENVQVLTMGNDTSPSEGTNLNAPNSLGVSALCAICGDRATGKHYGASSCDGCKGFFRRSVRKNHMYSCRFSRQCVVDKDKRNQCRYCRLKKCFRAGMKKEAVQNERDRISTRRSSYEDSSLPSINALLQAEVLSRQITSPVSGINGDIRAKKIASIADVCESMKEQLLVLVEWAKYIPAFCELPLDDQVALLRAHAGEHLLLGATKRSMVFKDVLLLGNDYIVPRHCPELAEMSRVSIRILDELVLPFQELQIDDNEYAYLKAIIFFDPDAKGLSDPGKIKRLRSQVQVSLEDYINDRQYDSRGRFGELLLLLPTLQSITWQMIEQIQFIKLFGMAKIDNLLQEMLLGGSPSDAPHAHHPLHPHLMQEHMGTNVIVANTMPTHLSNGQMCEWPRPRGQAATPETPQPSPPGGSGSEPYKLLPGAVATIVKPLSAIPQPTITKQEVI

[2] = molecular target: T2, Nuclear receptor subfamily 2 group C member 1 (Homo sapiens) (UniProt P13056); test: Selectivity interaction (Reporter gene assay) EUB0001144a NR2C1
T2 sequence (whole entry): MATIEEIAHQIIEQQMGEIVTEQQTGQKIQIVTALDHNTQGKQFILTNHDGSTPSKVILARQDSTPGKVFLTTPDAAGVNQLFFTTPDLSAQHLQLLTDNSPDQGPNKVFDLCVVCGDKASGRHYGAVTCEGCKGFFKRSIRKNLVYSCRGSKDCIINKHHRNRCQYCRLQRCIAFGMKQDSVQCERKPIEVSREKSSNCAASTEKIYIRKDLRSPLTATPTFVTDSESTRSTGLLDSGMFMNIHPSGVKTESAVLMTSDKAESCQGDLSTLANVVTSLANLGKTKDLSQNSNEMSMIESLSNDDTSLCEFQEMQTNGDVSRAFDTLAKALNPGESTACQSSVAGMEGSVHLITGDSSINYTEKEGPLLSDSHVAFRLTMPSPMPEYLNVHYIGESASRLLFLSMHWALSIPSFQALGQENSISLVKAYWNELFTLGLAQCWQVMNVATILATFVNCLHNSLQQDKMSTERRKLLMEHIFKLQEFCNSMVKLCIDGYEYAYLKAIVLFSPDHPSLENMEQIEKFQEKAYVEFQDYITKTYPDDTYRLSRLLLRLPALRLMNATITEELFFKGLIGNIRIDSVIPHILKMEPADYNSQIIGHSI

[3] = molecular target: Nuclear receptor subfamily 2 group E member 1 (Homo sapiens) (UniProt Q9Y466); test: Selectivity interaction (Reporter gene assay) EUB0001144a NR2E1
[4] = molecular target: Nuclear receptor subfamily 4immunitygroup A member 1 (Homo sapiens) (UniProt P22736); test: Selectivity interaction (Reporter gene assay) EUB0001144a NR4A1
[5] = molecular target: Steroidogenic factor 1 (Homo sapiens) (UniProt Q13285); test: Selectivity interaction (Reporter gene assay) EUB0001144a NR5A1
[6] = molecular target: T3, Alpha trans-inducing protein (Human alphaherpesvirus 1) (UniProt A0A5J6DW59); test: Selectivity interaction (Reporter gene assay) EUB0001144a UL48
[7] = molecular target: T4, Retinoic acid receptor RXR-alpha (Homo sapiens) (UniProt P19793); test: Selectivity interaction (Reporter gene assay) EUB0001144a RXRA; details: reference bexarotene 1 uM, Selectivity number of off-targets 0.0, Selectivity number of targets 1.0, Source Knowledge inhouse
T4 sequence (whole entry): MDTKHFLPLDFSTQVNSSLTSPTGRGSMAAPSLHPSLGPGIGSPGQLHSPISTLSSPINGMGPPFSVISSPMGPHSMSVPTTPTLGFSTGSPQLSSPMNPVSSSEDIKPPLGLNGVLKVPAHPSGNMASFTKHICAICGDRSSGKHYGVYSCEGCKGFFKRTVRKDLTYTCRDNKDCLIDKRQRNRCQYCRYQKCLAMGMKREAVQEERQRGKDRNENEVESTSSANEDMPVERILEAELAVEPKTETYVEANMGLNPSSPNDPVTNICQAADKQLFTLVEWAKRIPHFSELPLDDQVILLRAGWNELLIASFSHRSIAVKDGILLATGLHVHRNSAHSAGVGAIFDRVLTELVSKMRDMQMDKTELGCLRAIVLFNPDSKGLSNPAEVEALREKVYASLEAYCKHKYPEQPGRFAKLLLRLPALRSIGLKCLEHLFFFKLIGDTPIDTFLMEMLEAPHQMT

[8] = molecular target: Nuclear receptor ROR-alpha (Homo sapiens) (UniProt P35398); test: Selectivity interaction (Reporter gene assay) EUB0001136a RORA; details: screened at recom. conc., Selectivity number of off-targets 3.0, Selectivity number of targets 19.0, Source Knowledge inhouse
[9] = molecular target: Nuclear receptor ROR-beta (Homo sapiens) (UniProt Q92753); test: Selectivity interaction (Reporter gene assay) EUB0001136a RORB; details: screened at recom. conc., Selectivity number of off-targets 3.0, Selectivity number of targets 19.0, Source Knowledge inhouse
[10] = molecular target: Nuclear receptor ROR-gamma (Homo sapiens) (UniProt P51449); test: Selectivity interaction (Reporter gene assay) EUB0001136a RORC; details: screened at recom. conc., Selectivity number of off-targets 3.0, Selectivity number of targets 19.0, Source Knowledge inhouse
[11] = molecular target: Nuclear receptor subfamily 2 group E member 1 (Homo sapiens) (UniProt Q9Y466); test: Selectivity interaction (Reporter gene assay) EUB0001136a NR2E1; details: screened at recom. conc., Selectivity number of off-targets 2.0, Selectivity number of targets 5.0, Source Knowledge inhouse
[12] = molecular target: Steroidogenic factor 1 (Homo sapiens) (UniProt Q13285); test: Selectivity interaction (Reporter gene assay) EUB0001136a NR5A1; details: screened at recom. conc., Selectivity number of off-targets 2.0, Selectivity number of targets 5.0, Source Knowledge inhouse
[13] = molecular target: T3, Alpha trans-inducing protein (Human alphaherpesvirus 1); test: Selectivity interaction (Reporter gene assay) EUB0001136a UL48
[14] = molecular target: T1, Hepatocyte nuclear factor 4-alpha (Homo sapiens); test: Selectivity interaction (Reporter gene assay) EUB0001136a HNF4A
[15] = molecular target: T2, Nuclear receptor subfamily 2 group C member 1 (Homo sapiens); test: Selectivity interaction (Reporter gene assay) EUB0001136a NR2C1
[16] = molecular target: Nuclear receptor subfamily 4immunitygroup A member 1 (Homo sapiens) (UniProt P22736); test: Selectivity interaction (Reporter gene assay) EUB0001136a NR4A1
[17] = molecular target: T1, Hepatocyte nuclear factor 4-alpha (Homo sapiens); test: Selectivity interaction (Reporter gene assay) EUB0001142a HNF4A
[18] = molecular target: T2, Nuclear receptor subfamily 2 group C member 1 (Homo sapiens); test: Selectivity interaction (Reporter gene assay) EUB0001142a NR2C1
[19] = molecular target: Nuclear receptor subfamily 2 group E member 1 (Homo sapiens) (UniProt Q9Y466); test: Selectivity interaction (Reporter gene assay) EUB0001142a NR2E1
[20] = molecular target: Nuclear receptor subfamily 4immunitygroup A member 1 (Homo sapiens) (UniProt P22736); test: Selectivity interaction (Reporter gene assay) EUB0001142a NR4A1
[21] = molecular target: Steroidogenic factor 1 (Homo sapiens) (UniProt Q13285); test: Selectivity interaction (Reporter gene assay) EUB0001142a NR5A1
[22] = molecular target: T3, Alpha trans-inducing protein (Human alphaherpesvirus 1); test: Selectivity interaction (Reporter gene assay) EUB0001142a UL48
[23] = molecular target: T5, Peroxisome proliferator-activated receptor gamma (Homo sapiens) (UniProt P37231); test: Selectivity interaction (Reporter gene assay) EUB0001141a PPARG; details: screened at recom. conc., Selectivity number of off-targets 1.0, Selectivity number of targets 19.0, Source Knowledge inhouse
T5 sequence (whole entry): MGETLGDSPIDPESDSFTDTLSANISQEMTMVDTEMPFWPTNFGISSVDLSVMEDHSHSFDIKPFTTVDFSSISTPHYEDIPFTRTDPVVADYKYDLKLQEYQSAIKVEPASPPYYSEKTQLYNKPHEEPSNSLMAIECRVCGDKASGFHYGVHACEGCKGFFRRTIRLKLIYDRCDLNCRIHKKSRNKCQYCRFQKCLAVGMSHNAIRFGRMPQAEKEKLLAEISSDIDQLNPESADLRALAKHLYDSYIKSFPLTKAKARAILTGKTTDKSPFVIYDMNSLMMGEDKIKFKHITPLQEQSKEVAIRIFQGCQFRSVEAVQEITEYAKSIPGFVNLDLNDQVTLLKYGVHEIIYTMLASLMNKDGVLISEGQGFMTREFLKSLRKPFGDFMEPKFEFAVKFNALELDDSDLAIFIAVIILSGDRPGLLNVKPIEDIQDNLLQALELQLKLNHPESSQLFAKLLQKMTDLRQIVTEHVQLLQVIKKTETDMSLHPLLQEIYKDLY

[24] = molecular target: T1, Hepatocyte nuclear factor 4-alpha (Homo sapiens); test: Selectivity interaction (Reporter gene assay) EUB0001141a HNF4A
[25] = molecular target: T2, Nuclear receptor subfamily 2 group C member 1 (Homo sapiens); test: Selectivity interaction (Reporter gene assay) EUB0001141a NR2C1
[26] = molecular target: Nuclear receptor subfamily 2 group E member 1 (Homo sapiens) (UniProt Q9Y466); test: Selectivity interaction (Reporter gene assay) EUB0001141a NR2E1
[27] = molecular target: Nuclear receptor subfamily 4immunitygroup A member 1 (Homo sapiens) (UniProt P22736); test: Selectivity interaction (Reporter gene assay) EUB0001141a NR4A1
[28] = molecular target: Steroidogenic factor 1 (Homo sapiens) (UniProt Q13285); test: Selectivity interaction (Reporter gene assay) EUB0001141a NR5A1
[29] = molecular target: T3, Alpha trans-inducing protein (Human alphaherpesvirus 1); test: Selectivity interaction (Reporter gene assay) EUB0001141a UL48
[30] = molecular target: T4, Retinoic acid receptor RXR-alpha (Homo sapiens); test: Selectivity interaction (Reporter gene assay) EUB0001141a RXRA; details: reference bexarotene 1 uM, Selectivity number of off-targets 0.0, Selectivity number of targets 1.0, Source Knowledge inhouse
[31] = molecular target: T4, Retinoic acid receptor RXR-alpha (Homo sapiens); test: Selectivity interaction (Reporter gene assay) EUB0000835a RXRA; details: screened at recom. conc., reference bexarotene 1 uM, Selectivity number of off-targets 1.0, Selectivity number of targets 1.0, Source Knowledge inhouse
[32] = molecular target: T3, Alpha trans-inducing protein (Human alphaherpesvirus 1); test: Selectivity interaction (Reporter gene assay) EUB0000835a UL48
[33] = molecular target: T1, Hepatocyte nuclear factor 4-alpha (Homo sapiens); test: Selectivity interaction (Reporter gene assay) EUB0000835a HNF4A
[34] = molecular target: T2, Nuclear receptor subfamily 2 group C member 1 (Homo sapiens); test: Selectivity interaction (Reporter gene assay) EUB0000835a NR2C1
[35] = molecular target: Nuclear receptor subfamily 2 group E member 1 (Homo sapiens) (UniProt Q9Y466); test: Selectivity interaction (Reporter gene assay) EUB0000835a NR2E1
[36] = molecular target: Nuclear receptor subfamily 4immunitygroup A member 1 (Homo sapiens) (UniProt P22736); test: Selectivity interaction (Reporter gene assay) EUB0000835a NR4A1
[37] = molecular target: Steroidogenic factor 1 (Homo sapiens) (UniProt Q13285); test: Selectivity interaction (Reporter gene assay) EUB0000835a NR5A1

Steroidogenic factor 1 (Homo sapiens), sequence (Q13285 whole entry): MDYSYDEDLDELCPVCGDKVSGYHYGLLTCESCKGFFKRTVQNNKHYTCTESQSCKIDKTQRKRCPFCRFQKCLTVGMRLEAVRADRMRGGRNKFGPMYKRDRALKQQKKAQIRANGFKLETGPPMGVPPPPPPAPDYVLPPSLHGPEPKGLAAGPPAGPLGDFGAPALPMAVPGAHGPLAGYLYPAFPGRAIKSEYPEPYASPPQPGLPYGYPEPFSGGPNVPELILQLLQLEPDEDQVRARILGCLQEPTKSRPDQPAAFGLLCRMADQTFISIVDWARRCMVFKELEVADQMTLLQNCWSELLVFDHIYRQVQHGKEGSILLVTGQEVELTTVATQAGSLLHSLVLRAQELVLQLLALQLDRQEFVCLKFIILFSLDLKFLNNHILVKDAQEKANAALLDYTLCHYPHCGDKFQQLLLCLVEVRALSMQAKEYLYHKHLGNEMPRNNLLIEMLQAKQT
T3 sequence (A0A5J6DW59 as listed by the source): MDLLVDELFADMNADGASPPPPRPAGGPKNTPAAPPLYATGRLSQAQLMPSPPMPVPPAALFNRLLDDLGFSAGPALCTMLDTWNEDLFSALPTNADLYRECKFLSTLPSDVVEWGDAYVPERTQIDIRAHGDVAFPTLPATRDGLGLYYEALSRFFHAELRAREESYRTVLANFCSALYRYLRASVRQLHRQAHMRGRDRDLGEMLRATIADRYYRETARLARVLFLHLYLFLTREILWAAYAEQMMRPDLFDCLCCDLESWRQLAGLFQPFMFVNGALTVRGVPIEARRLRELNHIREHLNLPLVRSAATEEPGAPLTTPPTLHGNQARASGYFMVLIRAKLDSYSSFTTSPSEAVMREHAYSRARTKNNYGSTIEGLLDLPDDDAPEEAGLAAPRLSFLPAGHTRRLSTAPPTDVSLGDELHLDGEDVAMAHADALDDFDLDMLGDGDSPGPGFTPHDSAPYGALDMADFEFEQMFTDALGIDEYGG
Nuclear receptor subfamily 2 group E member 1 (Homo sapiens), sequence (Q9Y466 whole entry): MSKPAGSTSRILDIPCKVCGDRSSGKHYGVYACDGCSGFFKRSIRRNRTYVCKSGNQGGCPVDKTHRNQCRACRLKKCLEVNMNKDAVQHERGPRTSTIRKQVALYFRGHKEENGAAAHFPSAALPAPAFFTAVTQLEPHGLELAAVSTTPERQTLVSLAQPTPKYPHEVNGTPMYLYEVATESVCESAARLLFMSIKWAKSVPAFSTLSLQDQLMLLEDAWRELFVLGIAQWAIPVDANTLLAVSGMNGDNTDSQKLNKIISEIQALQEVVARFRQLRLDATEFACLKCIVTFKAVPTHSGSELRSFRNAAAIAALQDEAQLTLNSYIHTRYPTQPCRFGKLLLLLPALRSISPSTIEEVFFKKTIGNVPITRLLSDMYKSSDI
Nuclear receptor subfamily 4immunitygroup A member 1 (Homo sapiens), sequence (P22736 whole entry): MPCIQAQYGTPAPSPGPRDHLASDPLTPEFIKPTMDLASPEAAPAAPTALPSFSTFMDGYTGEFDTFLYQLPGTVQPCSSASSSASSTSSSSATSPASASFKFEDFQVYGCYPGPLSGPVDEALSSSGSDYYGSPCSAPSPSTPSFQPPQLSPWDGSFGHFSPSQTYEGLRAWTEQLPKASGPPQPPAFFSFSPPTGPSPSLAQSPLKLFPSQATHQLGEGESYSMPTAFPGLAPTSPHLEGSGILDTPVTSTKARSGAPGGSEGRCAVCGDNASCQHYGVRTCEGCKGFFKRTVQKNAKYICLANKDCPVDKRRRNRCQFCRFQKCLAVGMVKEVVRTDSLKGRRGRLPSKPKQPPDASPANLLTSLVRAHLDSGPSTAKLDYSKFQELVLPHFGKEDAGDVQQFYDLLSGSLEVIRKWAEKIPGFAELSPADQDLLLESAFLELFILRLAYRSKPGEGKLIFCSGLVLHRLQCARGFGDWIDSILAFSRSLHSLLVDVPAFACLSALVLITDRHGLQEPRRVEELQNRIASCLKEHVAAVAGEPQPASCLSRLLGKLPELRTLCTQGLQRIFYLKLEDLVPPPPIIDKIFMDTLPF
Nuclear receptor ROR-alpha (Homo sapiens), sequence (P35398 whole entry): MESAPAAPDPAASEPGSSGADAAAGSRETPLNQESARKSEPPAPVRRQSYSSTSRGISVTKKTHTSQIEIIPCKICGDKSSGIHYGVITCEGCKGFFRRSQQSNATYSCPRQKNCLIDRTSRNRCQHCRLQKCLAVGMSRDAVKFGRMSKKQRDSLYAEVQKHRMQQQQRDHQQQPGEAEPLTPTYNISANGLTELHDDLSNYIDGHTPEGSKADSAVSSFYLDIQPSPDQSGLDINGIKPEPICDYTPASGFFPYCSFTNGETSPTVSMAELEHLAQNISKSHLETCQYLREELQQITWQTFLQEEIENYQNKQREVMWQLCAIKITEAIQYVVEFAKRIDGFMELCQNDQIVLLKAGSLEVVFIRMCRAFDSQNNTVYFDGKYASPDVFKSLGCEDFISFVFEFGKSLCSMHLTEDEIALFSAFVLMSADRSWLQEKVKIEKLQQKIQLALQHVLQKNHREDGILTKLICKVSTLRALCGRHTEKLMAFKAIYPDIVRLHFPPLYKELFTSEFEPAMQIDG
Nuclear receptor ROR-gamma (Homo sapiens), sequence (P51449 whole entry): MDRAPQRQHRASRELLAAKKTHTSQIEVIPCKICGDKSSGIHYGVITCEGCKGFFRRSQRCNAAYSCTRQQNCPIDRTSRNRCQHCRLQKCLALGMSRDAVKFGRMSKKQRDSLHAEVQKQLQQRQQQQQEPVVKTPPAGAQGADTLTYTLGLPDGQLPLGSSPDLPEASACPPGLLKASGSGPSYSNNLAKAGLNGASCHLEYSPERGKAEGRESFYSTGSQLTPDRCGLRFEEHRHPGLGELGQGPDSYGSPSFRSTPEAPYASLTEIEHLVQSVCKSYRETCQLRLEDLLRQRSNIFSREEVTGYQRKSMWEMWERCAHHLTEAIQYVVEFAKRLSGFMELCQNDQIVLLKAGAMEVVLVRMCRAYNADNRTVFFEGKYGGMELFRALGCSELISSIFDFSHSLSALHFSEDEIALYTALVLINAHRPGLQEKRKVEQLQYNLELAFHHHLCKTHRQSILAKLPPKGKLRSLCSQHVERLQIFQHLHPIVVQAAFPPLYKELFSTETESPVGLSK
Nuclear receptor ROR-beta (Homo sapiens), sequence (Q92753 whole entry): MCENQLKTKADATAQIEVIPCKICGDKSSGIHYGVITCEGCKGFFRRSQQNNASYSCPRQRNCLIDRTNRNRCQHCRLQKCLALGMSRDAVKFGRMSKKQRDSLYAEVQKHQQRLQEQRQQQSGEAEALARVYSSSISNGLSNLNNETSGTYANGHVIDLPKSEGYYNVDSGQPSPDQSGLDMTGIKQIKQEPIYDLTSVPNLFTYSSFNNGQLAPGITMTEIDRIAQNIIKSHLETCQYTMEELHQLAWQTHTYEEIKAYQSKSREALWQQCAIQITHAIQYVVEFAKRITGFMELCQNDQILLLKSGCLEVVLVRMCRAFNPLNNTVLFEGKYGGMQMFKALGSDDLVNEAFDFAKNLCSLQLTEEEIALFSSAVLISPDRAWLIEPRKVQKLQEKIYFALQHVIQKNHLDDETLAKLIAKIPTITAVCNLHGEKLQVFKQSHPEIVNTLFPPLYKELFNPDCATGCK

Compound: CC(C=CC1=C(C)CCCC1(C)C)=CC=CC(C)=CC(=O)O
Remaining activity [8]: 0.56
Remaining activity [9]: 0.531
Remaining activity [10]: 0.461
Remaining activity [11]: 0.42
Remaining activity [12]: 0.42
P-value [13]: 0.000127
Remaining activity [14]: 0.532
Remaining activity [15]: 0.503
Remaining activity [16]: 0.986

Compound: CCCCCCCN(CCc1ccc(SC(C)(C)C(=O)O)cc1)C(=O)Nc1ccc(F)cc1F
Fold activation [17]: 1
Fold activation [18]: 1.16
Remaining activity [19]: 0.821
Fold activation [20]: 1
Fold activation [21]: 1
P-value [22]: 0.0039

Compound: Cc1nc(-c2ccc(C(F)(F)F)cc2)sc1C(=O)NCc1ccc(OC(C)(C)C(=O)O)cc1
Fold activation [23]: 2.82
Remaining activity [24]: 0.924
Remaining activity [25]: 0.982
Fold activation [26]: 0.997
Remaining activity [27]: 0.875
Fold activation [28]: 1.12
P-value [29]: 7.52e-07
Relative activation [30]: 0.895%

Second part, the compound after the results:

Fold activation [1]: 1.01
Fold activation [2]: 1.11
Fold activation [3]: 1.07
Remaining activity [4]: 0.821
Fold activation [5]: 1.01
P-value [6]: 0.0008
Relative activation [7]: 0.813%
Compound: CCO[C@@H](Cc1ccc(OCCc2ccc(OS(C)(=O)=O)cc2)cc1)C(=O)O

Relative activation [31]: 19.4%
P-value [32]: 0.00302
Fold activation [33]: 1.09
Remaining activity [34]: 0.83
Remaining activity [35]: 0.746
Remaining activity [36]: 0.964
Remaining activity [37]: 0.758
Compound: C[C@H]1[C@H]2CC[C@H]3[C@@H]4CC=C5C[C@@H](N(C)C)CC[C@]5(C)[C@H]4CC[C@]23CN1C
